By IC50 is commonly meant the concentration at which inhibition is half-maximal. A higher IC50 goes with lower potency.

The structures appear in SMILES notation.

The experiment addresses Lysine-specific histone demethylase 1A (Homo sapiens, UniProt O60341).

Description: Inhibition of recombinant full length LSD1 (unknown origin) transfected in Escherichia coli BL21 (DE) using H3K4me2 as substrate by flourescence based analysis

On to `COCCOc1cc2ncnc(Sc3ccc(Cl)cc3)c2cc1OCCOC`, for which the IC50 is above 50 µM.

The molecule `COCCOc1cc2ncnc(Nc3ccc4c(c3)OCO4)c2cc1OCCOC` showed an IC50 above 50 µM.

On to `C#Cc1cccc(Nc2nc(-c3ccccc3)nc3ccccc23)c1`, for which the IC50 is above 50 µM.

In turn, `COCCOc1cc2ncnc(Nc3ccc(Br)cc3)c2cc1OCCOC` registered an IC50 above 50 µM.

Regarding `COCCOc1cc2ncnc(Sc3nnnn3C)c2cc1OCCOC`, the IC50 is above 50 µM.

For the molecule `COCCOc1cc2ncnc(N3CCN(c4ccccc4F)CC3)c2cc1OCCOC`, the IC50 is above 50 µM.

On to `C#Cc1cccc(Nc2ncnc3ccccc23)c1`, for which the IC50 is above 50 µM.

`COCCOc1cc2ncnc(Sc3ccccn3)c2cc1OCCOC` gave an IC50 above 50 µM.

`C#Cc1cccc(Nc2ncnc3ccc(Br)cc23)c1` displayed an IC50 above 50 µM.

Molecule `COCCOc1cc2ncnc(Oc3cccc(Cl)c3)c2cc1OCCOC` had an IC50 above 50 µM.

Molecule `C#Cc1cccc(Nc2ncnc3cc(OCc4ccccc4)c(OC)cc23)c1` showed an IC50 above 50 µM.

Turning to `COCCOc1cc2ncnc(Nc3ccc(F)cc3)c2cc1OCCOC`, the 50% inhibitory concentration (IC50) is above 50 µM.

Consider `C#Cc1cccc(Nc2ncnc3cc(OC)c(OC)cc23)c1`, for which the IC50 is above 50 µM.

Consider `COCCOc1cc2ncnc(Nc3ccccc3)c2cc1OCCOC`, for which the IC50 is above 50 µM.

Molecule `COCCOc1cc2ncnc(Oc3ccc(OC)cc3)c2cc1OCCOC` had an IC50 above 50 µM.

`COCCOc1cc2ncnc(Sc3ccc(C)cc3)c2cc1OCCOC` registered an IC50 above 50 µM.

Molecule `COCCOc1cc2ncnc(N3CCN(C(C)=O)CC3)c2cc1OCCOC` had an IC50 above 50 µM.

In turn, `COCCOc1cc2ncnc(Sc3nnnn3-c3ccccc3)c2cc1OCCOC` had an IC50 above 50 µM.

Values taken from ChEMBL document CHEMBL4831513, “Discovery of quinazoline derivatives as a novel class of potent and in vivo efficacious LSD1 inhibitors by drug repurposing” (Eur J Med Chem, 2021).
